Test results: ChEMBL document CHEMBL1201862, “PubChem BioAssay data set” (2004)
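Test compounds were applied to cells in 96-well plates for 48 hours at 5 doses. At the GI50, growth is halved.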 The source made the active and inactive calls. No stated cut-off is given here; in the data, active = GI50 up to about 1.1 µM and inactive = higher.

Assays:
Assay in all cases: NCI anticancer screen, dose series, 48 h
HCT-116 = test system: HCT-116
HOP-62 = test system: HOP-62
OVCAR-4 = test system: OVCAR-4
OVCAR-3 = test system: OVCAR-3
SF-268 = test system: SF-268
SK-OV-3 = test system: SK-OV-3
SK-MEL-28 = test system: SK-MEL-28
Hs-578T = test system: Hs-578T
BT-549 = test system: BT-549
SN12C = test system: SN12C
HCT-15 = test system: HCT-15
M14 = test system: M14
SK-MEL-5 = test system: SK-MEL-5
LOX IMVI = test system: LOX IMVI
NCI-H226 = test system: NCI-H226
ACHN = test system: ACHN
SK-MEL-2 = test system: SK-MEL-2
MDA-N = test system: MDA-N
OVCAR-5 = test system: OVCAR-5
SNB-75 = test system: SNB-75

SMILES	GI50 (HCT-116)	GI50 (HOP-62)	GI50 (OVCAR-4)	GI50 (OVCAR-3)	GI50 (SF-268)	GI50 (SK-OV-3)	GI50 (SK-MEL-28)	GI50 (Hs-578T)	GI50 (BT-549)	GI50 (SN12C)	GI50 (HCT-15) [µM]	GI50 (M14)	GI50 (SK-MEL-5)	GI50 (LOX IMVI)	GI50 (NCI-H226)	GI50 (ACHN)	GI50 (SK-MEL-2)	GI50 (MDA-N)	GI50 (OVCAR-5)	GI50 (SNB-75)
Cc1nc2cc([N+](=O)[O-])ccc2c(NCCCN(C)C)c1C	4.68 µM (inactive)	10.9 µM (inactive)	3.03 µM (inactive)	6.31 µM (inactive)	20.3 µM (inactive)	31.5 µM (inactive)	50.5 µM (inactive)	20 µM (inactive)	11.8 µM (inactive)	11.4 µM (inactive)	14.7	13.8 µM (inactive)	10.1 µM (inactive)	11 µM (inactive)	5.08 µM (inactive)	20 µM (inactive)	10.5 µM (inactive)	14.8 µM (inactive)	13.2 µM (inactive)	20.7 µM (inactive)
Nc1onc2c1Cc1c(noc1N)-c1ccccc1-2	48.9 µM (inactive)	> 100 µM (inactive)	> 100 µM (inactive)	53.7 µM (inactive)	54 µM (inactive)	45.1 µM (inactive)	> 100 µM (inactive)	26.9 µM (inactive)	17.5 µM (inactive)	85.3 µM (inactive)	43.8	84.3 µM (inactive)	36.6 µM (inactive)	32.6 µM (inactive)	> 100 µM (inactive)	35.4 µM (inactive)	61.2 µM (inactive)	48.9 µM (inactive)	> 100 µM (inactive)	33.2 µM (inactive)
CCCC(=O)n1[nH]c(=O)n(-c2ccc(Cl)cc2)c1=O	> 100 µM (inactive)	> 100 µM (inactive)	> 100 µM (inactive)	> 100 µM (inactive)	> 100 µM (inactive)	> 100 µM (inactive)	> 100 µM (inactive)	> 100 µM (inactive)	> 100 µM (inactive)	> 100 µM (inactive)	> 100	> 100 µM (inactive)	> 100 µM (inactive)	> 100 µM (inactive)	> 100 µM (inactive)	> 100 µM (inactive)	> 100 µM (inactive)	> 100 µM (inactive)	> 100 µM (inactive)	> 100 µM (inactive)
c1c2c(cc3c1OCO3)-c1cc3ccc4c(c3c[n+]1CC2)OCO4 [COPTISINE CHLORIDE]	0.447 µM (active)	1.4 µM (inactive)	5.09 µM (inactive)	0.798 µM (active)	2.36 µM (inactive)	3.3 µM (inactive)	1.2 µM (inactive)	1.38 µM (inactive)	> 5.85 µM (inactive)	2.09 µM (inactive)	0.638	1 µM (active)	0.587 µM (active)	1.01 µM (active)	1.92 µM (inactive)	2.5 µM (inactive)	0.555 µM (active)	0.299 µM (active)	> 12.5 µM (inactive)	1.28 µM (inactive)
CC(C)CN1CN(c2ccccc2)C2(CCN(CC(C)(c3ccc(F)cc3)C3OCCO3)CC2)C1=O (stereo not given)	4.51 µM (inactive)	3.45 µM (inactive)	5.6 µM (inactive)	10.3 µM (inactive)	8.39 µM (inactive)	3.89 µM (inactive)	3.18 µM (inactive)	3.66 µM (inactive)	6.56 µM (inactive)	5.75 µM (inactive)	3.27	2.36 µM (inactive)	2.02 µM (inactive)	2.08 µM (inactive)	11.1 µM (inactive)	4.16 µM (inactive)	2.89 µM (inactive)	6.84 µM (inactive)	13 µM (inactive)	7.33 µM (inactive)
CN(c1ccccc1)S(=O)(=O)c1ccccc1[N+](=O)[O-]	97.5 µM (inactive)	> 100 µM (inactive)	98.4 µM (inactive)	> 100 µM (inactive)	> 100 µM (inactive)	> 100 µM (inactive)	> 100 µM (inactive)	> 100 µM (inactive)	75.2 µM (inactive)	> 100 µM (inactive)	> 100	> 100 µM (inactive)	> 10 µM (inactive)	> 100 µM (inactive)	> 100 µM (inactive)	> 100 µM (inactive)	> 100 µM (inactive)	> 100 µM (inactive)	> 100 µM (inactive)	96.6 µM (inactive)
COc1ccc2c(c1)-c1nc(=S)n(CCN(C)C)c3ccc([N+](=O)[O-])c(c13)N2	0.247 µM (active)	0.594 µM (active)	2.36 µM (inactive)	1.23 µM (inactive)	0.671 µM (active)	0.57 µM (active)	1.44 µM (inactive)	1.37 µM (inactive)	10.3 µM (inactive)	0.638 µM (active)	0.731	2.94 µM (inactive)	3.65 µM (inactive)	0.738 µM (active)	0.973 µM (active)	0.345 µM (active)	7.31 µM (inactive)	0.948 µM (active)	3.13 µM (inactive)	1.3 µM (inactive)
CC(C)(C(=O)N(C(=O)N1CCN(c2ccccc2)CC1)S(=O)(=O)c1ccccc1)c1ccc(Cl)cc1	17.7 µM (inactive)	27.5 µM (inactive)	28.1 µM (inactive)	18.7 µM (inactive)	34.4 µM (inactive)	24 µM (inactive)	> 100 µM (inactive)	39.1 µM (inactive)	30.7 µM (inactive)	52.4 µM (inactive)	7.94	31.3 µM (inactive)	35.7 µM (inactive)	46.8 µM (inactive)	52.4 µM (inactive)	19.5 µM (inactive)	21.3 µM (inactive)	41.5 µM (inactive)	42.2 µM (inactive)	77.1 µM (inactive)
O=c1c2cc([N+](=O)[O-])cnc2sn1-c1ccc(Br)cc1	19.5 µM (inactive)	36.1 µM (inactive)	24.5 µM (inactive)	22.4 µM (inactive)	27.5 µM (inactive)	14.8 µM (inactive)	> 100 µM (inactive)	23.7 µM (inactive)	91.4 µM (inactive)	72.6 µM (inactive)	57.4	53 µM (inactive)	> 100 µM (inactive)	19.3 µM (inactive)	73.6 µM (inactive)	> 100 µM (inactive)	32.7 µM (inactive)	> 100 µM (inactive)	38.4 µM (inactive)	73.5 µM (inactive)
